According to patent US20200405719A1, “CANCER TREATMENT USING COMBINATION OF NEUTROPHIL MODULATOR WITH MODULATOR OF IMMUNE CHECKPOINT” (APOLLOMICS INC., priority 2018, published 2020):
Read-outs that look alike come from different tables or passages of the source.

Legend:
[1] = tested on: MC38 tumor cells; experiment: MC-38 syngeneic colon cancer model, tumor growth and tolerability; assay type: in vivo
Experimental: The inventors undertook a combination study of APL-101 and an anti-PD-1 antibody to evaluate the safety and efficacy of the combination. In the MC-38 colon cancer model in syngeneic mice, four groups, five animals per group received either vehicle (water at 20 mg/kg orally, once a day), APL-101 (10 mg/kg orally, once a day), anti-PD-1 (10 mg/kg intraperitoneal injection, twice a week), or APL-101 plus anti-PD-1. In the vehicle group as well as the APL-101 group, animals were dosed daily on Days 1-15 whereas in the single agent anti-PD-1 group, doses were administered on Days 1, 4, 8, 11, and 15. In the combination arm of APL-101 and anti-PD-1, APL-101 was administered on Days 5-15 (4-day delay) while the anti-PD-1 was dosed on Days 1, 4, 8, 11, and 15.
(§1) Animals: female C57BL/6 mice, age 6-8 weeks and of body weight 18-20 g, were provided by Shanghai Lingchang Bio-Technology Co. Ltd.
APL-101 were provided by CBT pharmaceuticals (now Apollomics, Inc.). Anti-PD 1 antibodies were supplied by BioXcell.
Cell culture: The MC38 tumor cells were thawed and maintained in vitro as a monolayer culture in DMEM medium supplemented with 10% heat inactivated fetal bovine serum at 37° C. in an atmosphere of 5% CO2 in air. […] The cells growing in an exponential growth phase were harvested and counted for tumor inoculation. […]
Group assignment: Before grouping and treatment, all animals were weighed and the tumor volumes were measured using a caliper. […]
Observation and data collection: After tumor cells inoculation, the animals were checked daily for morbidity and mortality. During routine monitoring, the animals were checked for any effects of tumor growth and treatments on normal behavior such as mobility, visual estimation of food and water consumption, body weight gain/loss (body weights were measured twice per week after randomization), eye/hair matting and any other abnormal effect. Death and observed clinical signs were recorded in the comment of datasheet for each animal in detail. […] (Tumor weight was measured at the end of study). […]

[2] = tested on: RENCA tumor cells; experiment: Syngeneic Renca kidney cancer model, tumor growth and tolerability; assay type: in vivo
Source text: The inventors undertook a combination study of APL-101 and an anti-PD-1 antibody to evaluate the safety and efficacy of the combination. […]
as §1
APL-101 were provided by CBT pharmaceuticals (Apollomics, Inc.). Anti-PD 1 antibodies were supplied by BioXcell. PVP K30 were supplied by Fluka Analytical.
Cell culture: The Renca tumor cell line was maintained in vitro in DMEM medium supplemented with 10% fetal bovine serum at 37° C. in an atmosphere of 5% CO2 in air. The tumor cells were routinely subcultured twice weekly. The cells growing in an exponential growth phase were harvested and counted for tumor inoculation. […]
Observation and data collection: After tumor cells inoculation, the animals were checked daily for morbidity and mortality. During routine monitoring, the animals were checked for any effects of tumor growth and treatments on behavior such as mobility, food and water consumption, body weight gain/loss (body weights were measured twice weekly after randomization), eye/hair matting and any other abnormalities. Mortality and observed clinical signs were recorded for individual animals in detail. […] (Tumor weight were measured at the end of study). […]

[3] = tested on: H22 tumor cells; experiment: H22 syngeneic liver cancer model, tumor growth and tolerability; assay type: in vivo
Experimental: The inventors undertook a combination study of APL-101 and an anti-PD-1 antibody to evaluate the safety and efficacy of the combination. In the H22 liver cancer model in syngeneic mice, four groups, ten animals per group received either vehicle (PVP K30 at 20 mg/kg orally, once a day for three weeks), APL-101 (10 mg/kg orally, once a day for three weeks), anti-PD-1 (10 mg/kg intraperitoneal injection, twice a week for three weeks), or APL-101 plus anti-PD-1.
as §1
APL-101 were provided by CBT pharmaceuticals (now Apollomics, Inc.). […]
Cell culture: The H22 tumor cell line were maintained in vitro in RPMI-1640 medium supplemented with 10% fetal bovine serum at 37° C. in an atmosphere of 5% CO2 in air. […] The cells growing in an exponential growth phase were harvested and counted for tumor inoculation. […]
Observation and data collection: After tumor cells inoculation, the animals were checked daily for morbidity and mortality. During routine monitoring, the animals were checked for any effects of tumor growth and treatments on behavior such as mobility, food and water consumption, body weight gain/loss (body weights were measured twice weekly after randomization), eye/hair matting and any other abnormalities. […] (Tumor weight were measured at the end of study). […]

[4] = 150 mg every 12 hours; 300 mg total daily dose; cited from earlier work
[5] = 3 mg/kg IV on Day 1 and Day 15 of 28-day cycle; relapsed and refractory solid tumor subjects; cited from earlier work

Row | Molecule | Mean percent tumor growth ([1]; MC 38 syngeneic model, APL-101 10 mg/kg qd, anti-PD-1 Ab 10 mg/kg biw) | body weight of treated mice ([1]; MC-38 model, FIG. 1C, alone or in combination) | mean percent tumor growth inhibition ([1]; MC-38 syngeneic mice, APL-101 PO 10 mg/kg QD, anti-PD-1 IP 10 mg/kg BIW, combination x2 weeks, single agents x3 weeks) | body weight of treated mice ([2]; RENCA model, FIG. 3C, alone or in combination) | Mean percent tumor growth ([2]; syngeneic Renca kidney cancer model, APL-101 10 mg/kg QD x3 weeks, anti-PD-1 IP 10 mg/kg BIW x3 weeks) | Mean percent tumor growth ([3]; H22 syngeneic liver cancer model, APL-101 10 mg/kg QD x3 weeks, anti-PD-1 IP 10 mg/kg BIW x3 weeks) | body weight of treated mice ([3]; H-22 model, FIG. 2C, alone or in combination) | dose deemed safe by Safety Review Committee [4] | dose deemed safe by Safety Review Committee [5]
1 | Cn1cc2cc(C(F)(F)c3nnc4ccc(-c5cnn(C6CC6)c5)nn34)c(F)cc2n1 [APL-101] | 35.61% | did not affect the body weight | 33.6% | did not affect the body weight | 77% | 108.73% | did not affect the body weight | safe | –
2 | APL-501: anti-PD-1 antibody, previously named CBT-501, see WO2016/014688 | – | – | – | – | – | – | – | – | safe
